Experimental data from US20230183218A1, “CONDENSED SUBSTITUTED HYDROPYRROLES AS ANTAGONISTS OF THE MUSCARINIC ACETYLCHOLINE RECEPTOR M4” (Vanderbilt University, priority 2020, published 2023).

Assays:
[1] = target: T1, Human M4 (Homo sapiens, UniProt P08173); experiment: mAChR M4 cell-based functional assay (calcium flux, antagonist mode vs EC80 acetylcholine), human M4/Gqi5/CHO-K1 cells; conditions: for remaining activity at 30 µM: CHO-K1, % ACh maximum at 30 μM, human M4, read-out: Human M4 Emin (%); for IC50: decrease of response elicited by EC80 acetylcholine, human M4/Gqi5 CHO-K1 cells
T1 construct: expressed in transfected cells; host or cells: CHO-K1 (ATCC), stably co-expressing chimeric G protein Gqi5
T1 sequence (P08173 1-479): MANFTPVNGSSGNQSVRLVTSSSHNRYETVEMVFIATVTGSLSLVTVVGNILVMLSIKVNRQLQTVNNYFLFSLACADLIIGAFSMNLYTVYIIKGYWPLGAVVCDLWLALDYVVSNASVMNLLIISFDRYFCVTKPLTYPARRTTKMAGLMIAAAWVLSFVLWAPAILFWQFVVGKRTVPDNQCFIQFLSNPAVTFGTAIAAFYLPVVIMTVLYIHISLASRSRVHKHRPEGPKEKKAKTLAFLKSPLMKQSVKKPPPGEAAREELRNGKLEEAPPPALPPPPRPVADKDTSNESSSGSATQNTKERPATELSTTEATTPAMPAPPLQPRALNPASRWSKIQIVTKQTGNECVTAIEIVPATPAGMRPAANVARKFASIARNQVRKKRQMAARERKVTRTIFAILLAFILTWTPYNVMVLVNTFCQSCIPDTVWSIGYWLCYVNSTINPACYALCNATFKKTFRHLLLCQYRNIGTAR
Procedure: (§1) Human or rat M4 cDNA, along with the chimeric G protein Gqi5, were transfected into Chinese hamster ovary (CHO-K1) cells purchased from the American Type Culture Collection using Lipofectamine2000. M4/Gqi5/CHO cells were grown in Ham's F-12 medium containing 10% heat-inactivated fetal bovine serum (FBS), 20 mM HEPES, 500 μg/mL G418 sulfate, and 200 μg/mL Hygromycin B.
(§2) For high throughput measurement of agonist-evoked increases in intracellular calcium, CHO-K1 cells stably expressing muscarinic receptors were plated in growth medium lacking G418 and hygromycin at 15,000 cells/20 μL/well in Greiner 384-well black-walled, tissue culture (TC)-treated, clear-bottom plates (VWR). Cells were incubated overnight at 37° C. and 5% CO2. The next day, cells were washed using an ELX 405 (BioTek) with assay buffer; the final volume was then aspirated to 20 μL. Next, 20 μL of a 2.3 μM stock of Fluo-4/acetoxymethyl ester (Invitrogen, Carlsbad, Calif.), prepared as a 2.3 mM stock in DMSO and mixed in a 1:1 ratio with 10% (w/v) Pluronic F-127 and diluted in assay buffer, was added to the wells and the cell plates were incubated for 50 min at 37° C. and 5% CO2. Dye was removed by washing with the ELX 405 and the final volume was aspirated to 20 μL. Compound master plates were formatted in a 10 point concentration-response curve (CRC) format (1:3 dilutions) in 100% DMSO with a starting concentration of 10 or 1 mM using a BRAVO liquid handler (Agilent). Test compound CRCs were then transferred to daughter plates (240 nL) using the Echo acoustic plate reformatter (Labcyte, Sunnyvale, Calif.) and then diluted into assay buffer (40 μL) to a 2× stock using a Thermo Fisher Combi (Thermo Fisher Scientific, Waltham, Mass.).
(§3) Calcium flux was measured using the Functional Drug Screening System (FDSS) 6000 or 7000 (Hamamatsu Corporation, Tokyo, Japan) as an increase in the fluorescent static ratio. Compounds were applied to cells (20 μL, 2×) using the automated system of the FDSS at 2 seconds into the protocol and the data were collected at 1 Hz. At 143 s, 10 μL of an EC20 concentration of the muscarinic receptor agonist acetylcholine was added (5×), followed by the addition of 12 μL of an EC80 concentration of acetylcholine at the 268 s time point (5×). Agonist activity was analyzed as a concentration-dependent increase in calcium mobilization upon compound addition. Positive allosteric modulator activity was analyzed as a concentration-dependent increase in the EC20 acetylcholine response. Antagonist activity was analyzed as a concentration-dependent decrease in the EC80 acetylcholine response; for the purposes of the tables herein, an IC50 (inhibitory concentration 50) was calculated as a concentration-dependent decrease of the response elicited by an EC80 concentration of acetylcholine. Concentration-response curves were generated using a four-parameter logistical equation in XLFit curve fitting software (IDBS, Bridgewater, N.J.) for Excel (Microsoft, Redmond, Wash.) or Prism (GraphPad Software, Inc., San Diego, Calif.) or the Dotmatics software platform (Dotmatics, Bishop's Stortford, UK).
(§4) Compounds were synthesized as described above. Activity (IC50 and Emin) was determined in the mAChR M4 cell-based functional assay as described above and the data are shown in Table 2.

[2] = target: T2, Rat M4 (Rattus norvegicus, UniProt P08485); experiment: mAChR M4 cell-based functional assay (calcium flux, antagonist mode vs EC80 acetylcholine), rat M4/Gqi5/CHO-K1 cells; conditions: for remaining activity at 30 µM: CHO-K1, % ACh maximum at 30 μM, rat M4, read-out: Rat M4 Emin (%); for IC50: decrease of response elicited by EC80 acetylcholine, rat M4/Gqi5 CHO-K1 cells
T2 construct: expressed in transfected cells; host or cells: CHO-K1 (ATCC), stably co-expressing chimeric G protein Gqi5
T2 sequence (P08485 1-478): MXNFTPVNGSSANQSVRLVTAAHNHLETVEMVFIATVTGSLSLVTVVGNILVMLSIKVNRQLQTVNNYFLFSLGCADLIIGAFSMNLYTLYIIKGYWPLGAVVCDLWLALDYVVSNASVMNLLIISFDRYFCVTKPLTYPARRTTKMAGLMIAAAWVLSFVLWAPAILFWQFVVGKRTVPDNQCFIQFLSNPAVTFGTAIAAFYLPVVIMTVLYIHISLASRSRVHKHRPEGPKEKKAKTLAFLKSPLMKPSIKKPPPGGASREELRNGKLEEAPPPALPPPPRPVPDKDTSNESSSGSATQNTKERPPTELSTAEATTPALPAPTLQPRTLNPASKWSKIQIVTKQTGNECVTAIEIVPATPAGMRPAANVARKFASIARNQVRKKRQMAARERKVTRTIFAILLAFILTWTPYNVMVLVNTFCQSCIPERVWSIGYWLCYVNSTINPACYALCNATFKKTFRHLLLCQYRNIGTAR
Procedure: as §1, §2, §3, §4

O=S(=O)(c1ccccc1)c1nnc(N[C@H]2C[C@@H]3CN(CC4CCOCC4)C[C@@H]3C2)cc1NC1CC1 [compound 39, N^5-cyclopropyl-6-(phenylsulfonyl)-N^3-((3aR,5s,6aS)-2-((tetrahydro-2H-pyran-4-yl)methyl)octahydrocyclopenta[c]pyrrol-5-yl)pyridazine-3,5-diamine]
remaining activity at 30 µM [1]: 4%
IC50 [1]: 70.7 nM
remaining activity at 30 µM [2]: 4%
IC50 [2]: 288 nM

Cc1cnn(C)c1-c1ccc(N[C@H]2C[C@@H]3CN(C4CCOC(C)(C)C4)C[C@@H]3C2)nn1 (stereo partly drawn) [compound 57, (3aR,5s,6aS)-N-(6-(1,4-dimethyl-1H-pyrazol-5-yl)pyridazin-3-yl)-2-(2,2-dimethyltetrahydro-2H-pyran-4-yl)octahydrocyclopenta[c]pyrrol-5-amine]
remaining activity at 30 µM [1]: 2%
IC50 [1]: 28.9 nM
remaining activity at 30 µM [2]: 9%
IC50 [2]: 2030 nM

Fc1ccc(Cl)c(-c2ccc(N[C@H]3C[C@@H]4CN(C5CC6(COC6)C5)C[C@@H]4C3)nn2)c1 [compound 69, (3aR,5s,6aS)-N-(6-(2-chloro-5-fluorophenyl)pyridazin-3-yl)-2-(2-oxaspiro[3.3]heptan-6-yl)octahydrocyclopenta[c]pyrrol-5-amine]
remaining activity at 30 µM [1]: 4%
IC50 [1]: 11.8 nM
remaining activity at 30 µM [2]: 17%
IC50 [2]: 905 nM

CCCN1C(=O)C(C)(C)c2cc(N[C@H]3C[C@@H]4CN(CCC(C)(C)C)C[C@@H]4C3)nnc21 [compound 72, 3-(((3aR,5s,6aS)-2-(3,3-dimethylbutyl)octahydrocyclopenta[c]pyrrol-5-yl)amino)-5,5-dimethyl-7-propyl-5,7-dihydro-6H-pyrrolo[2,3-c]pyridazin-6-one]
remaining activity at 30 µM [1]: 4%
IC50 [1]: 10.5 nM
remaining activity at 30 µM [2]: 4%
IC50 [2]: 217 nM

O=C(Nc1ccccc1F)c1ccc(N[C@H]2C[C@@H]3CN(CC4CCOCC4)C[C@@H]3C2)nn1 [compound 8, N-(2-fluorophenyl)-6-(((3aR,5s,6aS)-2-((tetrahydro-2H-pyran-4-yl)methyl)octahydrocyclopenta[c]pyrrol-5-yl)amino)pyridazine-3-carboxamide]
remaining activity at 30 µM [1]: 4%
IC50 [1]: 355 nM
remaining activity at 30 µM [2]: 25%
IC50 [2]: > 10000 nM

CC1(C)CC(N2C[C@H]3C[C@H](Nc4ccc(-c5ccccc5F)nn4)C[C@H]3C2)CCO1 (stereo partly drawn) [compound 52, (3aR,5s,6aS)-2-(2,2-dimethyltetrahydro-2H-pyran-4-yl)-N-(6-(2-fluorophenyl)pyridazin-3-yl)octahydrocyclopenta[c]pyrrol-5-amine]
remaining activity at 30 µM [1]: 3%
IC50 [1]: 12.1 nM
remaining activity at 30 µM [2]: 6%
IC50 [2]: 776 nM

Cc1cccnc1CN1C[C@H]2C[C@H](Nc3ccc(S(=O)(=O)C4CCCCC4)nn3)C[C@H]2C1 [compound 43, (3aR,5s,6aS)-N-(6-(cyclohexylsulfonyl)pyridazin-3-yl)-2-((3-methylpyridin-2-yl)methyl)octahydrocyclopenta[c]pyrrol-5-amine]
remaining activity at 30 µM [1]: 5%
IC50 [1]: 76.3 nM
remaining activity at 30 µM [2]: 11%
IC50 [2]: 1260 nM

Fc1ccc(Cl)c(-c2ccc(N[C@H]3C[C@@H]4CN(C5CCCCCC5)C[C@@H]4C3)nn2)c1 [compound 75, (3aR,5s,6aS)-N-(6-(2-chloro-5-fluorophenyl)pyridazin-3-yl)-2-cycloheptyloctahydrocyclopenta[c]pyrrol-5-amine]
remaining activity at 30 µM [1]: 2%
IC50 [1]: 3.2 nM
remaining activity at 30 µM [2]: 3%
IC50 [2]: 41.8 nM

O=S(=O)(c1ccc(N[C@H]2C[C@@H]3CN(Cc4ccc5cc[nH]c5c4)C[C@@H]3C2)nn1)C1CCCCC1 [compound 48, (3aR,5s,6aS)-2-((1H-indol-6-yl)methyl)-N-(6-(cyclohexylsulfonyl)pyridazin-3-yl)octahydrocyclopenta[c]pyrrol-5-amine]
remaining activity at 30 µM [1]: 3%
IC50 [1]: 183 nM
remaining activity at 30 µM [2]: 9%
IC50 [2]: 4540 nM

CC(C)(C)CCN1C[C@H]2C[C@H](Nc3ccc(S(=O)(=O)C4CCCCC4)nn3)C[C@H]2C1 [compound 49, (3aR,5s,6aS)-N-(6-(cyclohexylsulfonyl)pyridazin-3-yl)-2-(3,3-dimethylbutyl)octahydrocyclopenta[c]pyrrol-5-amine]
remaining activity at 30 µM [1]: 3%
IC50 [1]: 5.75 nM
remaining activity at 30 µM [2]: 4%
IC50 [2]: 63.8 nM

O=C(c1ccc(N[C@H]2C[C@@H]3CN(CC4CCOCC4)C[C@@H]3C2)nn1)N1CCCCC1 [compound 5, piperidin-1-yl(6-(((3aR,5s,6aS)-2-((tetrahydro-2H-pyran-4-yl)methyl)octahydrocyclopenta[c]pyrrol-5-yl)amino)pyridazin-3-yl)methanone]
remaining activity at 30 µM [1]: 14%
IC50 [1]: 5.45 nM
remaining activity at 30 µM [2]: 14%
IC50 [2]: > 10000 nM

O=S(=O)(c1ccccc1)c1ccc(N[C@H]2C[C@@H]3CN(CC4CCOCC4)C[C@@H]3C2)nn1 [compound 23, (3aR,5s,6aS)-N-(6-(phenylsulfonyl)pyridazin-3-yl)-2-((tetrahydro-2H-pyran-4-yl)methyl)octahydrocyclopenta[c]pyrrol-5-amine]
remaining activity at 30 µM [1]: 4%
IC50 [1]: 65.6 nM
remaining activity at 30 µM [2]: 11%
IC50 [2]: 1520 nM

CC1(C)CC(N2C[C@H]3C[C@H](Nc4ccc(-c5ccc6nccn6c5)nn4)C[C@H]3C2)CCO1 (stereo partly drawn) [compound 21, (3aR,5s,6aS)-2-(2,2-dimethyltetrahydro-2H-pyran-4-yl)-N-(6-(imidazo[1,2-a]pyridin-6-yl)pyridazin-3-yl)octahydrocyclopenta[c]pyrrol-5-amine]
remaining activity at 30 µM [1]: 7%
IC50 [1]: 36.2 nM
remaining activity at 30 µM [2]: 8%
IC50 [2]: 808 nM
